Source: patent US20170348398A1, “COMPOSITIONS AND METHODS FOR DECREASING BLOOD GLUCAGON LEVELS” (Vanderbilt University, priority 2016, published 2017)

B1: activin A: Recombinant mouse Activin A protein (R&D Biosystems) (protein, UniProt Q04998 309-424, looked up)
Inhibin beta A chain: GLECDGKVNICCKKQFFVSFKDIGWNDWIIAPSGYHANYCEGECPSHIAGTSGSSLSFHSTVINHYRMRGHSPFANLKSCCVPTKLRPMSMLYYDDGQNIIKKDIQNMIVEECGCS
modifications: Inhibin beta A chain

Tested on: α-cells
Assay: in vitro α-cell proliferation assay (cultured mouse islets, cytospin, Ki67+ glucagon+ counting)
Assay type: cell-based
Settings: for alpha cell proliferation at high levels of the amino acid: high levels of the single amino acid; for α-cell proliferation when the amino acid is lowered to Gcgr+/+ serum levels: all other amino acids kept at high (Gcgr−/− serum) concentrations; for linear regression of amino acid concentration in media versus α-cell proliferation: media conditions of Table 1
From the text: To maximize the ability to quantify proliferating α-cells intact mouse islets were first cultured in media supplemented with Gcgr−/− or Gcgr+/+ mouse serum, dispersing the islets into cells, and then the cells centrifuged into a focused monolayer of cells using a cytospin centrifuge (FIG. 1A). […] To further maximize the throughput of this assay, a cytonuclear algorithm was developed to automate quantification of α-cell proliferation in cytospin islet images (FIG. 7C).
Pancreatic islets were isolated from male 8-14 week old C57B16/J mice (Jackson Laboratory, ME) and cultured in various media conditions for 3 days. […] For complete amino acid content in each media condition, see Table 1. For serum fractionation, serum was centrifuged for 1 hour at 2000×g at room temperature in a 10 kDa molecular weight cutoff spin column (Millipore, Billerica, Mass.). […] For lipid removal, serum was treated with Cleanascite reagent (Biotech Support Group, Monmouth Junction, N.J.) prior to islet culture at a 1:1 ratio according to the vendor's protocol.
Dispersed islet cells were recovered by centrifugation in RPMI media containing 5.6 mM glucose, 10% FBS, and 1% Penicillin/Streptomycin. The resulting cell pellet was resuspended in 100 ul of media and centrifuged onto a glass slide using a cytospin (Thermo Scientific, Waltham, Mass.) centrifuge. Air-dried slides were stored at −80° C. until use, thawed, and immediately fixed in 4% paraformaldehyde before immunocytochemistry. Slides were mounted with Aqua-Poly/Mount (Warrington, Pa.).
Cytospin slides were imaged using a Leica Microsystems Epifluorescent Microscope DM1 6000B. Tiled images were analyzed by a cytonuclear algorithm developed using the […] Software package (Indica Labs) (FIG. 7A). A glucagon surface was created by mapping glucagon immunoreactivity. DAPI and Ki67 positive cells were identified using a spot mapping algorithm. α-cells were identified by masking the glucagon surface on the DAPI staining and then creating a pseudospot where each α-cell was identified. Colocalization was determined by coregistering glucagon pseudospots with Ki67 spots. Each image was then manually checked for accuracy. For all islet culture experiments, a minimum of 500 α-cells counted per replicate (i.e. n=1) were required to be included in an experiment.

Molecule	alpha cell proliferation at high levels of the amino acid	other results
NCCCC[C@H](N)C(=O)O [lysine]	not	
NCC(=O)O [glycine]	not	
CC(C)[C@H](N)C(=O)O [valine]	not	
CSCC[C@H](N)C(=O)O [methionine]	not	
N=C(N)NCCC[C@H](N)C(=O)O [arginine]	stimulated alpha cell proliferation	
NCCC[C@H](N)C(=O)O [ornithine]	not	α-cell proliferation (cultured mouse islets, 3 days): failed to stimulate α-cell proliferation
N[C@@H](Cc1ccc(O)cc1)C(=O)O [tyrosine]	not	
NC(=O)NCCC[C@H](N)C(=O)O [Citrulline]		α-cell proliferation (cultured mouse islets, 3 days): failed to stimulate α-cell proliferation
C[C@H](N)C(=O)O [alanine]	not	α-cell proliferation (cultured mouse islets, 3 days): failed to stimulate α-cell proliferation
NC(=O)CC[C@H](N)C(=O)O [L-glutamine]		α-cell proliferation when the amino acid is lowered to Gcgr+/+ serum levels: abolished the stimulation of α-cell proliferation; non α-cell proliferation (cultured mouse islets, 3 days): no effect; α-cell proliferation (cultured mouse islets, 3 days): in a dose-dependent fashion increased α-cell proliferation; linear regression of amino acid concentration in media versus α-cell proliferation: significantly and positively correlated
CC(C)C[C@H](N)C(=O)O [L-leucine]		α-cell proliferation when the amino acid is lowered to Gcgr+/+ serum levels: not required for increased α-cell proliferation; linear regression of amino acid concentration in media versus α-cell proliferation: significantly and positively correlated
CC[C@H](C)[C@H](N)C(=O)O [isoleucine]	not	
O=C(O)[C@@H]1CCCN1 [proline]	not	
N[C@@H](Cc1c[nH]cn1)C(=O)O [histidine]	not	
N[C@@H](CCC(=O)O)C(=O)O [L-glutamic acid]		α-cell proliferation when the amino acid is lowered to Gcgr+/+ serum levels: not required for increased α-cell proliferation; linear regression of amino acid concentration in media versus α-cell proliferation: significantly and positively correlated
NC(=O)C[C@H](N)C(=O)O [asparagine]	not	
N[C@@H](CO)C(=O)O [serine]	not	
B1		α-cell proliferation (cultured mouse islets, 3 days): did not stimulate α-cell proliferation
